Key:
AZD1775 = compound: C=CCn1c(=O)c2cnc(Nc3ccc(N4CCN(C)CC4)cc3)nc2n1-c1cccc(C(C)(C)O)n1 [AZD1775]; conditions: max 3 µM
Summary of the method: (§1)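 Viability was measured with CellTiter-Glo 2.0 luminescence after 72 hours of dosing at a final DMSO of typically 0.2%, and scaled between blank-well and DMSO-well means. Beforehand, cancer cell lines sat 24 hours at 37°C and 5% CO2 in 1536-well plates in 7.5 μl DMEM/F12 or RPMI with 10% FBS. A non-linear mixed effects model fitted two-parameter logistic curves to the dose responses. The single-agent IC50 comes from these fits.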

SRA737 = compound: N#Cc1cnc(Nc2cc(NC[C@H]3CNCCO3)c(C(F)(F)F)cn2)cn1 [SRA737]; conditions: max 10 µM
Summary of the method: as §1

Lapatinib = compound: CS(=O)(=O)CCNCc1ccc(-c2ccc3ncnc(Nc4ccc(OCc5cccc(F)c5)c(Cl)c4)c3c2)o1 [Lapatinib]; conditions: max 10 µM
Summary of the method: as §1

AZD4320 = compound: CN(CC[C@H](CSC1=CC=CC=C1)NC2=C(C=C(C=C2)S(=O)(=O)NC(=O)C3=CC=C(C=C3)N4CCC(CC4)[C@H](C5=CC=CC=C5C6=CC=C(C=C6)Cl)O)S(=O)(=O)C(F)(F)F)CCO [AZD4320]; conditions: max 1 µM
Summary of the method: as §1

SN-38 = compound: CCc1c2c(nc3ccc(O)cc13)-c1cc3c(c(=O)n1C2)COC(=O)[C@]3(O)CC [SN-38]; conditions: max 0.3 µM
Summary of the method: as §1

Carboplatin = compound: C1CC(C1)(C(=O)[O-])C(=O)[O-].N.N.[Pt+2] [Carboplatin]; conditions: max 10 µM
Summary of the method: as §1

Gefitinib = compound: COc1cc2ncnc(Nc3ccc(F)c(Cl)c3)c2cc1OCCCN1CCOCC1 [Gefitinib]; conditions: max 10 µM
Summary of the method: as §1

Palbociclib = compound: CC(=O)c1c(C)c2cnc(Nc3ccc(N4CCNCC4)cn3)nc2n(C2CCCC2)c1=O [Palbociclib]; conditions: max 10 µM
Summary of the method: as §1

Dasatinib = compound: CC1=C(C(=CC=C1)Cl)NC(=O)C2=CN=C(S2)NC3=CC(=NC(=N3)C)N4CCN(CC4)CCO [Dasatinib]; conditions: max 2 µM
Summary of the method: as §1

Trametinib = compound: CC(=O)Nc1cccc(-n2c(=O)n(C3CC3)c(=O)c3c(Nc4ccc(I)cc4F)n(C)c(=O)c(C)c32)c1 [Trametinib]; conditions: max 1 µM
Summary of the method: as §1

AZD5363 = compound: C1CN(CCC1(C(=O)N[C@@H](CCO)C2=CC=C(C=C2)Cl)N)C3=NC=NC4=C3C=CN4 [AZD5363]; conditions: max 10 µM
Summary of the method: as §1

AZD5153 = compound: COc1nnc2ccc(N3CCC(c4ccc(OCCN5CCN(C)C(=O)[C@H]5C)cc4)CC3)nn12 [AZD5153]; conditions: max 1 µM
Summary of the method: as §1

MK-2206 = compound: NC1(c2ccc(-c3nc4ccn5c(=O)[nH]nc5c4cc3-c3ccccc3)cc2)CCC1 [MK-2206]; conditions: max 10 µM
Summary of the method: as §1

AZD1390 = compound: CC(C)n1c(=O)n(C)c2cnc3cc(F)c(-c4ccc(OCCCN5CCCCC5)nc4)cc3c21 [AZD1390]; conditions: max 0.3 µM
Summary of the method: as §1

Olaparib = compound: O=C(c1cc(Cc2n[nH]c(=O)c3ccccc23)ccc1F)N1CCN(C(=O)C2CC2)CC1 [Olaparib]; conditions: max 10 µM
Summary of the method: as §1

[1] = compound: O=C(Nc1ccc2[nH]nc(-c3ccncc3)c2c1)[C@@H]1CCN(CC(=O)N2CCN(c3ccc(-c4ncccn4)cc3)CC2)C1; conditions: max 5 µM
Summary of the method: as §1

Savolitinib = compound: C[C@@H](c1ccc2nccn2c1)n1nnc2ncc(-c3cnn(C)c3)nc21 [Savolitinib]; conditions: max 1 µM
Summary of the method: as §1

Selumetinib = compound: Cn1cnc2c(F)c(Nc3ccc(Br)cc3Cl)c(C(=O)NOCCO)cc21 [Selumetinib]; conditions: max 10 µM
Summary of the method: as §1

Etoposide = compound: COc1cc([C@@H]2c3cc4c(cc3[C@@H](O[C@@H]3O[C@@H]5CO[C@@H](C)O[C@H]5[C@H](O)[C@H]3O)[C@H]3COC(=O)[C@H]23)OCO4)cc(OC)c1O [Etoposide]; conditions: max 10 µM
Summary of the method: as §1

Crizotinib = compound: C[C@@H](Oc1cc(-c2cnn(C3CCNCC3)c2)cnc1N)c1c(Cl)ccc(F)c1Cl [Crizotinib]; conditions: max 10 µM
Summary of the method: as §1

AZD7648 = compound: Cc1cc2ncnn2cc1Nc1ncc2c(n1)n(C1CCOCC1)c(=O)n2C [AZD7648]; conditions: max 10 µM
Summary of the method: as §1

AZD2811 = compound: CCN(CCO)CCCOc1ccc2c(Nc3cc(CC(=O)Nc4cccc(F)c4)[nH]n3)ncnc2c1 [AZD2811]; conditions: max 1 µM
Summary of the method: as §1

Gemcitabine = compound: Nc1ccn([C@@H]2O[C@H](CO)[C@@H](O)C2(F)F)c(=O)n1 [Gemcitabine]; conditions: max 0.3 µM
Summary of the method: as §1

Venetoclax = compound: CC1(C)CCC(CN2CCN(c3ccc(C(=O)NS(=O)(=O)c4ccc(NCC5CCOCC5)c([N+](=O)[O-])c4)c(Oc4cnc5[nH]ccc5c4)c3)CC2)=C(c2ccc(Cl)cc2)C1 [Venetoclax]; conditions: max 1 µM
Summary of the method: as §1

Doxorubicin = compound: COc1cccc2c1C(=O)c1c(O)c3c(c(O)c1C2=O)C[C@@](O)(C(=O)CO)C[C@@H]3O[C@H]1C[C@H](N)[C@H](O)[C@H](C)O1 [Doxorubicin]; conditions: max 1 µM
Summary of the method: as §1

AZD8186 = compound: C[C@@H](Nc1cc(F)cc(F)c1)c1cc(C(=O)N(C)C)cc2c(=O)cc(N3CCOCC3)oc12 [AZD8186]; conditions: max 10 µM
Summary of the method: as §1

Prexasertib = compound: COc1cccc(OCCCN)c1-c1cc(Nc2cnc(C#N)cn2)n[nH]1 [Prexasertib]; conditions: max 1 µM
Summary of the method: as §1

SG3199 = compound: CC1=CN2[C@@H](C1)C=NC3=CC(=C(C=C3C2=O)OC)OCCCCCOC4=C(C=C5C(=C4)N=C[C@@H]6CC(=CN6C5=O)C)OC [SG3199]; conditions: max 0.001 µM
Summary of the method: as §1

Alisertib = compound: COc1cc(Nc2ncc3c(n2)-c2ccc(Cl)cc2C(c2c(F)cccc2OC)=NC3)ccc1C(=O)O [Alisertib]; conditions: max 10 µM
Summary of the method: as §1

AZD5991 = compound: Cc1c2c(nn1C)CSCc1cc(n(C)n1)CSc1cc(c3ccccc3c1)OCCCc1c(C(=O)O)n(C)c3c-2c(Cl)ccc13 [AZD5991]; conditions: max 1 µM
Summary of the method: as §1

AZD0156 = compound: CN(C)CCCOc1ccc(-c2ccc3ncc4c(c3c2)n(C2CCOCC2)c(=O)n4C)cn1 [AZD0156]; conditions: max 3 µM
Summary of the method: as §1

Paclitaxel = compound: CC(=O)O[C@H]1C(=O)[C@@]2(C)[C@H]([C@H](OC(=O)c3ccccc3)[C@]3(O)C[C@H](OC(=O)[C@H](O)[C@@H](NC(=O)c4ccccc4)c4ccccc4)C(C)=C1C3(C)C)[C@]1(OC(C)=O)CO[C@@H]1C[C@@H]2O [Paclitaxel]; conditions: max 3 µM
Summary of the method: as §1

5-Fluorouracil = compound: O=c1[nH]cc(F)c(=O)[nH]1 [5-Fluorouracil]; conditions: max 20 µM
Summary of the method: as §1

Taselisib = compound: Cc1nc(-c2cn3c(n2)-c2ccc(-c4cnn(C(C)(C)C(N)=O)c4)cc2OCC3)n(C(C)C)n1 [Taselisib]; conditions: max 10 µM
Summary of the method: as §1

AZD6738 = compound: C[C@@H]1COCCN1C2=NC(=NC(=C2)C3(CC3)[S@](=N)(=O)C)C4=C5C=CNC5=NC=C4 [AZD6738]; conditions: max 10 µM
Summary of the method: as §1

Cell Line | IC50, cell viability 72 h (AZD1775) [nM] | IC50, cell viability 72 h (SRA737) [µM] | IC50, cell viability 72 h (Lapatinib) [µM] | IC50, cell viability 72 h (AZD4320) [nM] | IC50, cell viability 72 h (SN-38) [nM] | IC50, cell viability 72 h (Carboplatin) [µM] | IC50, cell viability 72 h (Gefitinib) [µM] | IC50, cell viability 72 h (Palbociclib) [µM] | IC50, cell viability 72 h (Dasatinib) [nM] | IC50, cell viability 72 h (Trametinib) [nM] | IC50, cell viability 72 h (AZD5363) [µM] | IC50, cell viability 72 h (AZD5153) [nM] | IC50, cell viability 72 h (MK-2206) [µM] | IC50, cell viability 72 h (AZD1390) [nM] | IC50, cell viability 72 h (Olaparib) [µM] | IC50, cell viability 72 h [1] [µM] | IC50, cell viability 72 h (Savolitinib) [nM] | IC50, cell viability 72 h (Selumetinib) [µM] | IC50, cell viability 72 h (Etoposide) [µM] | IC50, cell viability 72 h (Crizotinib) [µM] | IC50, cell viability 72 h (AZD7648) [µM] | IC50, cell viability 72 h (AZD2811) [nM] | IC50, cell viability 72 h (Gemcitabine) [nM] | IC50, cell viability 72 h (Venetoclax) [nM] | IC50, cell viability 72 h (Doxorubicin) [nM] | IC50, cell viability 72 h (AZD8186) [µM] | IC50, cell viability 72 h (Prexasertib) [nM] | IC50, cell viability 72 h (SG3199) [nM] | IC50, cell viability 72 h (Alisertib) [µM] | IC50, cell viability 72 h (AZD5991) [nM] | IC50, cell viability 72 h (AZD0156) [nM] | IC50, cell viability 72 h (Paclitaxel) [nM] | IC50, cell viability 72 h (5-Fluorouracil) [µM] | IC50, cell viability 72 h (Taselisib) [µM] | IC50, cell viability 72 h (AZD6738) [µM]
SJSA-1 (Osteosarcoma) | > 3000 | > 10 | > 10 | > 1000 | 87.9 | > 10 | > 10 | > 10 | > 2000 | > 1000 | > 10 | 533 | > 10 | > 300 | > 10 | > 5 | > 1000 | > 10 | > 10 | > 10 | > 10 | > 1000 | 82.1 | > 1000 | > 1000 | > 10 | 156 | > 1 | > 10 | > 1000 | > 3000 | 79.9 | > 20 | 4.81 | > 10
SK-GT-4 (Esophageal Adenocarcinoma) | > 3000 | > 10 | > 10 | > 1000 | > 300 | > 10 | > 10 | > 10 | 1500 | 90.1 | > 10 | > 1000 | > 10 | > 300 | > 10 | 4.61 | > 1000 | 6.05 | > 10 | > 10 | > 10 | > 1000 | > 300 | > 1000 | > 1000 | > 10 | 70.7 | > 1 | > 10 | > 1000 | > 3000 | 945 | > 20 | 0.911 | > 10
ST486 (Burkitt's Lymphoma) | 320 | 0.968 | > 10 | 134 | 80.9 | > 10 | > 10 | > 10 | 220 | > 1000 | > 10 | 64.9 | > 10 | > 300 | > 10 | 4.79 | > 1000 | 8.88 | 1.18 | 0.739 | > 10 | 31.9 | 15.9 | > 1000 | 773 | > 10 | 7.33 | > 1 | 0.04 | 71 | > 3000 | 8.5 | > 20 | > 10 | 2
T-T (Esophageal Squamous Cell Carcinoma) | 1770 | > 10 | > 10 | > 1000 | 115 | > 10 | > 10 | > 10 | > 2000 | > 1000 | > 10 | > 1000 | > 10 | > 300 | > 10 | > 5 | > 1000 | > 10 | > 10 | > 10 | > 10 | > 1000 | > 300 | > 1000 | > 1000 | > 10 | 350 | > 1 | > 10 | 341 | > 3000 | 29.3 | > 20 | 2.98 | > 10
VMRC-RCZ (Kidney Carcinoma) | > 3000 | > 10 | > 10 | > 1000 | > 300 | > 10 | > 10 | > 10 | > 2000 | > 1000 | > 10 | > 1000 | > 10 | > 300 | > 10 | > 5 | > 1000 | > 10 | > 10 | > 10 | > 10 | > 1000 | > 300 | > 1000 | > 1000 | > 10 | > 1000 | > 1 | > 10 | > 1000 | > 3000 | > 3000 | > 20 | > 10 | > 10
